Experimental data taken from patent US20200172483A1, “HETEROCYCLIC SMALL MOLECULE MODULATORS OF HUMAN STING” (Curadev Pharma Limited, priority 2017, published 2020).

The molecules below were run against T1, WT/R232 STING protein (Homo sapiens, UniProt Q86WV6, H232R) (assay: Luciferase reporter assay in HEK293T-hSTING-Luciferase cells (R232)). Settings: 20 hr stimulation, EC50 range.
T1 construct: host or cells: HEK293T
Format: cell-based
From the text: • a) Stable STING expressing cells—Stable HEK293T STING-expressing cell lines were generated using plasmids purchased from Invivogen, CA, USA, that contain STING cDNA cloned into the pUNO-1 vector under hEF1-HTLV promoter and containing the Blasticidin selection cassette. The plasmids hSTING (R232), hSTING (H232), hSTING (HAQ) were directly procured from Invivogen while hSTING (AQ) and hSTING (Q) were derived from hSTING (HAQ) and hSTING (R232) plasmids respectively by using a PCR based site directed mutagenesis method. These vectors were individually transfected into HEK293T cells using Lipofectamine (Invitrogen) and transfected cells were selected under Blasticidin selection. These transfected cells were further subjected to clonal selection using the limiting dilution method to obtain clonally pure populations of HEK cells transfected with each of the above mentioned human STING variants. Only those clones were selected in which ligand independent activation of STING was minimal. • b) Stable Luciferase reporter gene expressing cells—Stable HEK293T Luciferase reporter gene expressing cell lines were generated using pCDNA4 plasmids under an IRF-inducible promoter. This promoter is comprised of five tandem interferon-stimulated response elements (ISRE) fused to an ISG54 minimal promoter. This vector was transfected into HEK293T cells using Lipofectamine (Invitrogen) and transfected cells were selected under Zeocin selection. These transfected cells were further subjected to clonal selection using the limiting dilution method to obtain clonally pure populations of HEK cells transfected the Luciferase reporter construct. Only those clones were selected in which ligand independent induction of luciferase was minimal.
5×10^5 clonally selected HEK293T-hSTING-Luciferase cells were seeded in 384-well plates in growth medium and stimulated with novel compounds. After 20 hr of stimulation supernatant were removed and secretary reporter gene activity were measured using the Quanti-Luc detection system (Invivogen) on a Spectramax i3X luminometer.
All compounds were first tested in a primary screen using WT/R232 STING protein to obtain a ‘fold-induction’ over baseline levels of protein activity.

T1 sequence (Q86WV6 whole entry H232R): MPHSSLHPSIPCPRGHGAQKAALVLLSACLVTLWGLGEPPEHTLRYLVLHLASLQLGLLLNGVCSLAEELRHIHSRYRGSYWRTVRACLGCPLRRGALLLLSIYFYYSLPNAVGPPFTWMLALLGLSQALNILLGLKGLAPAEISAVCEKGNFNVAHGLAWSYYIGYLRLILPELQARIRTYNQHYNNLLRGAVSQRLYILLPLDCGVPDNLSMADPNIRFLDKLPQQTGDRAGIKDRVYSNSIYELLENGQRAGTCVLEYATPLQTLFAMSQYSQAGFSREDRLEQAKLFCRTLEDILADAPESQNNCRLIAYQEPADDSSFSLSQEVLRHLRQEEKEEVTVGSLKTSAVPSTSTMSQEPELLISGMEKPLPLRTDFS

`CC1(C)C(=O)N(Cc2cc(F)cc(F)c2)c2nc(C(=O)NCCc3c(F)cc(F)cc3F)ccc21` [Example 190, 1-(3,5-difluorobenzyl)-3,3-dimethyl-2-oxo-N-(2,4,6-trifluorophenethyl)-2,3-dihydro-1H-pyrrolo[2,3-b]pyridine-6-carboxamide] and `CC1(O)C(=O)N(Cc2cc(F)cc(F)c2)c2cc(C(=O)NCc3c(F)cc(F)cc3F)ccc21` (centres unmarked) [Example 162] cannot be ordered by EC50: greater than 10 µM for the first, greater than 10 µM for the second.

`CC1(CO)C(=O)N(Cc2cc(F)cc(F)c2)c2cc(C(=O)NCc3ccc(F)cc3F)ccc21` (centres unmarked) [Example 176, N-(2,4-difluorobenzyl)-1-(3,5-difluorobenzyl)-3-(hydroxymethyl)-3-methyl-2-oxoindoline-6-carboxamide] and `CC1(CCN)C(=O)N(Cc2cc(F)cc(F)c2)c2cc(C(=O)NCc3c(F)cc(F)cc3F)ccc21` (centres unmarked) [Example 173, 3-(2-aminoethyl)-1-(3,5-difluorobenzyl)-3-methyl-2-oxo-N-(2,4,6-trifluorobenzyl)indoline-6-carboxamide] cannot be ordered by EC50: greater than 10 µM for the first, greater than 10 µM for the second.

`CC1(C)C(=O)N(Cc2cc(F)cc(F)c2)c2nc(C(=O)NCc3cc4ccncc4o3)ccc21` [Example 187, 1-(3,5-difluorobenzyl)-N-(furo[2,3-c]pyridin-2-ylmethyl)-3,3-dimethyl-2-oxo-2,3-dihydro-1H-pyrrolo[2,3-b]pyridine-6-carboxamide] and `CC1(C)C(=O)N(Cc2cc(F)cc(F)c2)c2cc(C(=O)NCc3cc4ccccc4o3)cnc21` [Example 193, N-(benzofuran-2-ylmethyl)-1-(3,5-difluorobenzyl)-3,3-dimethyl-2-oxo-2,3-dihydro-1H-pyrrolo[3,2-b]pyridine-6-carboxamide] cannot be ordered by EC50: greater than 10 µM for the first, greater than 10 µM for the second.

`Cc1ncc(CN2C(=O)C(C)(C)c3ccc(C(=O)NCc4c(F)cc(F)cc4F)cc32)o1` [Example 128, 3,3-dimethyl-1-((2-methyloxazol-5-yl)methyl)-2-oxo-N-(2,4,6-trifluorobenzyl)indoline-6-carboxamide] and `CC1(C)C(=O)N(Cc2cc3ccccc3o2)c2cc(C(=O)NCc3c(F)cc(F)cc3F)ccc21` [Example 131, 1-(benzofuran-2-ylmethyl)-3,3-dimethyl-2-oxo-N-(2,4,6-trifluorobenzyl)indoline-6-carboxamide] cannot be ordered by EC50: greater than 10 µM for the first, greater than 10 µM for the second.

`CC1(C)C(=O)N(Cc2cc(F)cc(F)c2)c2cc(C(=O)NCc3cccc(N=[N+]=[N-])c3)ccc21` [Example 47, N-(3-azidobenzyl)-1-(3,5-difluorobenzyl)-3,3-dimethyl-2-oxoindoline-6-carboxamide] and `CC1(C)C(=O)N(Cc2cc(F)cc(F)c2)c2cc(C(=O)NCc3ccc(F)o3)ccc21` [Example 69, 1-(3,5-difluorobenzyl)-N-((5-fluorofuran-2-yl)methyl)-3,3-dimethyl-2-oxoindoline-6-carboxamide] fall in the same range of EC50: 1 to 10 µM for the first, 1 to 10 µM for the second.

`O=C(NCc1ccco1)c1ccc2c(c1)N(Cc1c(F)cccc1Cl)C(=O)C21CC1` [Example 139, 1′-(2-chloro-6-fluorobenzyl)-N-(furan-2-ylmethyl)-2′-oxospiro[cyclopropane-1,3′-indoline]-6′-carboxamide] and `O=C(NCc1ccco1)c1ccc2c(c1)N(Cc1c(F)cccc1Cl)S(=O)(=O)C2` [Example 140, 1-(2-chloro-6-fluorobenzyl)-N-(furan-2-ylmethyl)-1,3-dihydrobenzo[c]isothiazole-6-carboxamide 2,2-dioxide] cannot be ordered by EC50: greater than 10 µM for the first, greater than 10 µM for the second.

Compared with `CC1(C)C(=O)N(Cc2c(F)cccc2Cl)c2cc(C(=O)NCc3ccc4c(c3)CC(=O)N4)ccc21` [Example 95, 1-(2-chloro-6-fluorobenzyl)-3,3-dimethyl-2-oxo-N-((2-oxoindolin-5-yl)methyl)indoline-6-carboxamide], `CC1(C)C(=O)N(Cc2c(F)cccc2Cl)c2cc(C(=O)NCc3cccc(Cl)c3)ccc21` [Example 9, 1-(2-chloro-6-fluorobenzyl)-N-(3-chlorobenzyl)-3,3-dimethyl-2-oxoindoline-6-carboxamide] is lower in EC50: greater than 10 µM for the first, 1 to 10 µM for the second.

`Cc1ccc(CNC(=O)c2ccc3c(c2)N(Cc2ccc(F)c(F)c2)C(=O)C3(C)C)o1` [Example 122, 1-(3,4-difluorobenzyl)-3,3-dimethyl-N-((5-methylfuran-2-yl)methyl)-2-oxoindoline-6-carboxamide] and `Cc1ccc(CNC(=O)c2ccc3c(c2)N(CCc2ccccc2)C(=O)C3(C)C)o1` [Example 59, 3,3-dimethyl-N-((5-methylfuran-2-yl)methyl)-2-oxo-1-phenethylindoline-6-carboxamide] fall in the same range of EC50: 1 to 10 µM for the first, 1 to 10 µM for the second.

`Cc1nnc(CNC(=O)c2ccc3c(c2)N(Cc2cc(F)cc(F)c2)C(=O)C3(C)C)o1` [Example 29, 1-(3,5-difluorobenzyl)-3,3-dimethyl-N-((5-methyl-1,3,4-oxadiazol-2-yl)methyl)-2-oxoindoline-6-carboxamide] and `CC1(C)C(=O)N(Cc2cc(F)cc(F)c2)c2cc(C(=O)NCC3CCC(F)(F)C3)ccc21` (centres unmarked) [Example 39, 1-(3,5-difluorobenzyl)-N-((3,3-difluorocyclopentyl)methyl)-3,3-dimethyl-2-oxoindoline-6-carboxamide] cannot be ordered by EC50: greater than 10 µM for the first, greater than 10 µM for the second.

First: CC1(C)C(=O)N(Cc2c(F)cccc2Cl)c2cc(C(=O)NCc3cc4cc(O)ccc4o3)ccc21 [Example 88, 1-(2-chloro-6-fluorobenzyl)-N-((5-hydroxybenzofuran-2-yl)methyl)-3,3-dimethyl-2-oxoindoline-6-carboxamide]
Second: CC1(C)C(=O)N(Cc2c(F)cccc2Cl)c2cc(C(=O)NCc3cccc4occc34)ccc21 [Example 93, N-(benzofuran-4-ylmethyl)-1-(2-chloro-6-fluorobenzyl)-3,3-dimethyl-2-oxoindoline-6-carboxamide]
The EC50 of the first is lower: 1 to 10 µM for the first, greater than 10 µM for the second.

`CC1(C)C(=O)N(Cc2cccc(C(N)=O)c2)c2cc(C(=O)NCc3ccc(F)cc3F)ccc21` [Example 38, 1-(3-carbamoylbenzyl)-N-(2,4-difluorobenzyl)-3,3-dimethyl-2-oxoindoline-6-carboxamide] and `CC1(C)C(=O)N(Cc2c(F)cccc2Cl)c2cc(C(=O)NCc3ccc(N)cc3)ccc21` [Example 85, N-(4-aminobenzyl)-1-(2-chloro-6-fluorobenzyl)-3,3-dimethyl-2-oxoindoline-6-carboxamide] fall in the same range of EC50: 1 to 10 µM for the first, 1 to 10 µM for the second.

`Cc1oc(-c2ccccc2)nc1CN1C(=O)C(C)(C)c2ccc(C(=O)NCc3c(F)cc(F)cc3F)cc21` [Example 91, 3,3-dimethyl-1-((5-methyl-2-phenyloxazol-4-yl)methyl)-2-oxo-N-(2,4,6-trifluorobenzyl)indoline-6-carboxamide] and `Cc1cccc(-c2nc(CN3C(=O)C(C)(C)c4ccc(C(=O)NCc5c(F)cc(F)cc5F)cc43)c(C)o2)c1` [Example 78, 3,3-dimethyl-1-((5-methyl-2-(m-tolyl)oxazol-4-yl)methyl)-2-oxo-N-(2,4,6-trifluorobenzyl)indoline-6-carboxamide] cannot be ordered by EC50: greater than 10 µM for the first, greater than 10 µM for the second.

Compared with `Cn1cccc1CNC(=O)c1ccc2c(c1)N(Cc1c(F)cccc1Cl)C(=O)C2(C)C` [Example 127, 1-(2-chloro-6-fluorobenzyl)-3,3-dimethyl-N-((1-methyl-1H-pyrrol-2-yl)methyl)-2-oxoindoline-6-carboxamide], `Cc1cnc(CNC(=O)c2ccc3c(c2)N(Cc2c(F)cccc2Cl)C(=O)C3(C)C)o1` [Example 126, 1-(2-chloro-6-fluorobenzyl)-3,3-dimethyl-N-((5-methyloxazol-2-yl)methyl)-2-oxoindoline-6-carboxamide] is lower in EC50: greater than 10 µM for the first, 1 to 10 µM for the second.

`CC(C)C1(O)C(=O)N(Cc2c(F)cccc2Cl)c2cc(C(=O)NCc3c(F)cc(F)cc3F)ccc21` (centres unmarked) [Example 159, 1-(2-chloro-6-fluorobenzyl)-3-hydroxy-3-isopropyl-2-oxo-N-(2,4,6-trifluorobenzyl)indoline-6-carboxamide] and `CC1(O)C(=O)N(Cc2c(F)cccc2Cl)c2cc(C(=O)NCc3c(F)cc(F)cc3F)ccc21` (centres unmarked) [Example 143, 1-(2-Chloro-6-fluorobenzyl)-3-hydroxy-3-methyl-2-oxo-N-(2,4,6-trifluorobenzyl)indoline-6-carboxamide] cannot be ordered by EC50: greater than 10 µM for the first, greater than 10 µM for the second.

`Cc1ncc(CNC(=O)c2ccc3c(c2)N(Cc2c(F)cccc2Cl)C(=O)C3(C)C)o1` [Example 31, 1-(2-chloro-6-fluorobenzyl)-3,3-dimethyl-N-((2-methyloxazol-5-yl)methyl)-2-oxoindoline-6-carboxamide] and `CC1(C)C(=O)N(Cc2c(F)cccc2Cl)c2cc(C(=O)NCc3cccc4c3OCO4)ccc21` [Example 87, N-(benzo[d][1,3]dioxol-4-ylmethyl)-1-(2-chloro-6-fluorobenzyl)-3,3-dimethyl-2-oxoindoline-6-carboxamide] cannot be ordered by EC50: greater than 10 µM for the first, greater than 10 µM for the second.

`CC1(C(N)=O)C(=O)N(Cc2cc(F)cc(F)c2)c2cc(C(=O)NCc3c(F)cc(F)cc3F)ccc21` (centres unmarked) [Example 170] and `O=C(NCc1c(F)cc(F)cc1F)c1ccc2c(c1)N(Cc1cc(F)cc(F)c1)C(=O)C2=O` [Example 141, 1-(3,5-Difluorobenzyl)-2,3-dioxo-N-(2,4,6-trifluorobenzyl)indoline-6-carboxamide] cannot be ordered by EC50: greater than 10 µM for the first, greater than 10 µM for the second.
